Measurements as given in the supplement of paper PMC10307832.

Legend:
Assay in all cases: relative viability (nuclei count vs DMSO), 5 days (fraction); higher = more cells survive
Sunitinib = compound: CCN(CC)CCNC(=O)c1c(C)[nH]c(/C=C2\C(=O)Nc3ccc(F)cc32)c1C [Sunitinib]
Outline: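 Lung cancer cell lines in 1536-well plates were exposed by pinning to five library-drug doses (not always all listed) √10 apart, following an overnight hold at 37 °C. MetaXpress counted Hoechst-stained nuclei from 4× images taken after 5 days without medium change. Viability is the median ratio of treated-well to vehicle-well nuclei across plates. Plates required control CV below 25% and at least one doubling.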

Sunitinib + Olaparib = compound: CCN(CC)CCNC(=O)c1c(C)[nH]c(/C=C2\C(=O)Nc3ccc(F)cc32)c1C [Sunitinib] + O=C(c1cc(Cc2n[nH]c(=O)c3ccccc23)ccc1F)N1CCN(C(=O)C2CC2)CC1 [Olaparib] (partner 8 µM)
Outline: (§1)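 Values are medians from duplicate plates. Each reflects relative viability, defined as the nuclei count of treated wells over that of vehicle wells. Lung cancer cell lines in 1536-well plates were pin-tool dosed one day after seeding with one drug alone or with a fixed anchor-drug dose plus five library-drug doses (not always all listed) in √10 steps, then fixed, stained and imaged at 4× after 5 days.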

Sunitinib + Phenformin = compound: CCN(CC)CCNC(=O)c1c(C)[nH]c(/C=C2\C(=O)Nc3ccc(F)cc32)c1C [Sunitinib] + N=C(N)NC(=N)NCCc1ccccc1 [Phenformin] (partner 250 µM)
Outline: as §1

Sunitinib + Trametinib = compound: CCN(CC)CCNC(=O)c1c(C)[nH]c(/C=C2\C(=O)Nc3ccc(F)cc32)c1C [Sunitinib] + CC(=O)Nc1cccc(-n2c(=O)n(C3CC3)c(=O)c3c(Nc4ccc(I)cc4F)n(C)c(=O)c(C)c32)c1 [Trametinib] (partner 0.02 µM)
Outline: as §1

Cell Line	relative viability (Sunitinib; 0.02 µM)	relative viability (Sunitinib; 0.06325 µM)	relative viability (Sunitinib; 0.2 µM)	relative viability (Sunitinib; 0.6325 µM)	relative viability (Sunitinib; 2 µM)	relative viability (Sunitinib + Olaparib; first compound 0.02 µM)	relative viability (Sunitinib + Olaparib; first compound 0.06325 µM)	relative viability (Sunitinib + Olaparib; first compound 0.2 µM)	relative viability (Sunitinib + Olaparib; first compound 0.6325 µM)	relative viability (Sunitinib + Olaparib; first compound 2 µM)	relative viability (Sunitinib + Phenformin; first compound 0.02 µM)	relative viability (Sunitinib + Phenformin; first compound 0.06325 µM)	relative viability (Sunitinib + Phenformin; first compound 0.2 µM)	relative viability (Sunitinib + Phenformin; first compound 0.6325 µM)	relative viability (Sunitinib + Phenformin; first compound 2 µM)	relative viability (Sunitinib + Trametinib; first compound 0.02 µM)	relative viability (Sunitinib + Trametinib; first compound 0.06325 µM)	relative viability (Sunitinib + Trametinib; first compound 0.2 µM)	relative viability (Sunitinib + Trametinib; first compound 0.6325 µM)	relative viability (Sunitinib + Trametinib; first compound 2 µM)
EKVX	0.974	1.01	1.14	1.12	1	0.941	0.991	0.952	0.957	0.97	0.242	0.234	0.236	0.256	0.248	0.314	0.357	0.412	0.345	0.298
HCC-78	0.984	0.947	0.994	0.899	1	0.765	0.82	0.865	0.866	0.891	0.639	0.726	0.71	0.677	0.806	0.76	0.812	0.985	0.737	0.701
NCI-H650	0.906	1.1	1.01	1.03	1.08	0.399	0.405	0.39	0.445	0.384	0.444	0.46	0.428	0.49	0.465	0.917	1.04	1.16	0.988	1.01
NCI-H1915	0.943	1.05	1.02	1.03	1.07	0.261	0.288	0.268	0.245	0.289	0.348	0.396	0.43	0.367	0.368	0.291	0.291	0.304	0.298	0.261
NCI-H596	0.952	1.15		0.998	0.913	0.688	0.678	0.679	0.686	0.651	0.641	0.816	0.829	0.792	0.723	0.762	0.86	0.723		1.02
EMC-BAC-2	0.935	1.11	1.18	1.01	1.07	0.462	0.52	0.539	0.529	0.582	0.489	0.566	0.595	0.559	0.543	0.868	0.932	0.966	0.99	1.12
NCI-H1792	0.802	1.11	1.18	0.924	1.02	0.491	0.371	0.98	0.404	0.384		0.381	0.351	0.418	0.31	0.463	0.417	0.533	0.442	0.377
SW 900	1.01	1.07	0.932	1.04	0.957	0.794	1.04	0.847	1.1	0.945	0.579	0.79	0.641	0.894	0.581	0.718	0.715	0.941	0.795	0.766
BEN	0.85	0.97	0.988	0.973		1.02	1.03	1.14	1.08	0.956	0.277	0.266	0.267	0.275	0.265	0.9		1.06	1.08	1.05
NCI-H727	0.942	1.17	1.23	1.09	0.859	0.747	0.649	0.717	0.593	0.778	0.475	0.733	0.649	0.67	0.538	0.409	0.412	0.412	0.396	0.367
H3255	0.94	0.902		1.02	0.988	0.541	0.605	0.6	0.593	0.56	0.4	0.383	0.344	0.411	0.365	0.611	0.658	0.652	0.614	0.597
NCI-H661	0.977		1	1.05	1.03	0.716	0.739	0.733	0.711	0.773	0.263	0.31	0.27	0.264	0.265	0.513	0.597	0.703	0.63	0.649
NCI-H1993	0.963	0.992	1.08	0.915	0.98	1.02	0.979	1.12	0.844	1.03	0.541	0.501	0.545	0.479	0.53	0.51	0.53	0.448	0.424	0.651
NCI-H2085	0.999	1.04	1.01	1.03	1.04	0.777	0.801	0.819	0.808	0.787	0.686	0.916	0.788	0.877	0.754	0.5	0.515	0.515	0.634	0.71
NCI-H838	0.932	1.06	1.03	0.952	0.782	0.757	0.766	0.812	0.731	0.58	0.546	0.769	0.583	0.583	0.511	0.473	0.558	0.647	0.534	0.489
NCI-H1944	0.914	1.09	1.15	1.05	1.1	0.39	0.414	0.473	0.43	0.447	0.183	0.206	0.214	0.203	0.199	0.401	0.423	0.457	0.437	0.43

Cell Line	relative viability (Sunitinib; 0.02 µM)	relative viability (Sunitinib; 0.06325 µM)	relative viability (Sunitinib; 0.2 µM)	relative viability (Sunitinib; 0.6325 µM)	relative viability (Sunitinib; 2 µM)	relative viability (Sunitinib + Olaparib; first compound 0.02 µM)	relative viability (Sunitinib + Olaparib; first compound 0.06325 µM)	relative viability (Sunitinib + Olaparib; first compound 0.2 µM)	relative viability (Sunitinib + Olaparib; first compound 0.6325 µM)	relative viability (Sunitinib + Olaparib; first compound 2 µM)	relative viability (Sunitinib + Phenformin; first compound 0.02 µM)	relative viability (Sunitinib + Phenformin; first compound 0.06325 µM)	relative viability (Sunitinib + Phenformin; first compound 0.2 µM)	relative viability (Sunitinib + Phenformin; first compound 0.6325 µM)	relative viability (Sunitinib + Phenformin; first compound 2 µM)	relative viability (Sunitinib + Trametinib; first compound 0.02 µM)	relative viability (Sunitinib + Trametinib; first compound 0.06325 µM)	relative viability (Sunitinib + Trametinib; first compound 0.2 µM)	relative viability (Sunitinib + Trametinib; first compound 0.6325 µM)	relative viability (Sunitinib + Trametinib; first compound 2 µM)
NCI-H1650		1.05	0.964	0.942	0.903	0.744	0.742	0.822	0.791	0.738	0.384	0.492	0.382	0.533	0.371	0.509	0.63	0.874	0.621	0.552
NCI-H1395	1.02	1.01	0.925	0.991	0.945	0.441	0.438	0.478	0.484	0.482	0.462	0.415	0.446	0.487	0.482	0.92		1.22	0.988	0.99
NCI-H1355	0.962	1.07	1.12	1.02	1.05	0.786	0.812	0.904	0.818	0.712	0.441	0.453	0.473	0.482	0.432	0.44	0.438	0.567	0.437	0.376
HOP-62	0.95	1.07	1.13	1.1	1.06	0.453	0.374	0.449	0.472	0.63	0.614	0.713	0.745	0.661	0.698	0.376	0.364	0.389	0.374	0.379
NCI-H2405	1.01	1.06	1.05	1.07	1.01	0.855	0.965	0.88	0.96	0.93	0.399	0.391	0.406	0.395	0.406	0.59	0.582	0.662	0.672	0.628
NCI-H358	0.875	0.97	1.1	0.897	0.67	0.452	0.617	0.756	0.666	0.471	0.322	0.447	0.373	0.348	0.29	0.137	0.143	0.138	0.127	0.14
EPLC-272H	0.841	1.07	0.939	0.98	0.795	0.764	0.998	1.01	0.746	0.388	0.335	0.334	0.324	0.313	0.263	0.253	0.271	0.287	0.283	0.288
NCI-H522	0.927	1.12	0.996	0.962	0.999	0.623	0.574	0.75	0.616	0.641	0.602	0.79	0.659	0.673	0.756		0.672	0.667	0.783	0.794
NCI-H3122	0.986	1.05	0.996	1.01		0.636	0.692	0.657	0.606	0.585	0.35	0.387	0.366	0.361	0.288	0.289	0.287	0.231	0.233	0.299
NCI-H1651	0.938	1.1		0.996	1.03	0.213	0.196	0.199	0.17	0.179	0.289	0.332	0.352	0.353	0.368	0.801		0.901		0.847
SK-MES-1	0.931	1.03	1.09	1.11	0.988	0.643	0.7	0.877		0.678	0.619	0.665	0.689	0.655	0.52	0.526	0.528	0.555	0.575	0.459
LCLC-103H	0.905	1.07	1.12	0.903	1.03	0.69	0.839	0.787	0.75	0.817	0.354	0.343	0.352	0.365	0.33	0.612	0.692	0.629	0.728	0.719
HCC-366	0.963	1.05	1.07		0.965	0.343	0.355	0.482	0.449	0.42	0.559	0.624	0.644	0.599	0.544	0.313	0.407	0.382	0.389	0.339
NCI-H460			1.05	0.995	1.08	0.41	0.484	0.614	0.473	0.578	0.48	0.567	0.54	0.535	0.487	0.104	0.185	0.226	0.287	0.191
COR-L 105	0.876	1.05	0.952		0.889	0.591	0.695	0.881	0.651	0.837	0.415	0.544	0.496	0.49	0.471	0.45	0.465	0.452	0.469	0.44
NCI-H1975	0.911		1.06	0.963	0.855	0.742	0.8	0.946	0.868	0.714	0.399	0.442	0.425	0.427	0.393	0.322	0.361	0.33	0.421	0.316
